In ChEMBL document CHEMBL1156143, “Structure-activity relationship studies of chalcone leading to 3-hydroxy-4,3',4',5'-tetramethoxychalcone and its analogues as potent nuclear factor kappaB inhibitors and their anticancer activities” (J Med Chem, 2009):
Calls of active or inactive are those of the source. No cut-off for these calls is given here.

Experiments:
NCI-H2009 [1] = experiment: Cytotoxicity against human NCI-H2009 cells after 48 hrs by fluorescence assay; type: functional; details: NCI-H2009, 48 h
[2] = Inhibition of TNFalpha induced NF-kappaB activation in human A549 cells by luciferase reporter gene assay; type: cell-based
A549 = experiment: Cytotoxicity against human A549 cells after 48 hrs by fluorescence assay; type: functional; details: A549, 48 h
[3] = molecular target: Interleukin-1 receptor-associated kinase 1 (Homo sapiens) (UniProt P51617); experiment: Inhibition of IRAK1 at 10 uM
Sequence of Interleukin-1 receptor-associated kinase 1 (Homo sapiens) (P51617 whole entry, looked up): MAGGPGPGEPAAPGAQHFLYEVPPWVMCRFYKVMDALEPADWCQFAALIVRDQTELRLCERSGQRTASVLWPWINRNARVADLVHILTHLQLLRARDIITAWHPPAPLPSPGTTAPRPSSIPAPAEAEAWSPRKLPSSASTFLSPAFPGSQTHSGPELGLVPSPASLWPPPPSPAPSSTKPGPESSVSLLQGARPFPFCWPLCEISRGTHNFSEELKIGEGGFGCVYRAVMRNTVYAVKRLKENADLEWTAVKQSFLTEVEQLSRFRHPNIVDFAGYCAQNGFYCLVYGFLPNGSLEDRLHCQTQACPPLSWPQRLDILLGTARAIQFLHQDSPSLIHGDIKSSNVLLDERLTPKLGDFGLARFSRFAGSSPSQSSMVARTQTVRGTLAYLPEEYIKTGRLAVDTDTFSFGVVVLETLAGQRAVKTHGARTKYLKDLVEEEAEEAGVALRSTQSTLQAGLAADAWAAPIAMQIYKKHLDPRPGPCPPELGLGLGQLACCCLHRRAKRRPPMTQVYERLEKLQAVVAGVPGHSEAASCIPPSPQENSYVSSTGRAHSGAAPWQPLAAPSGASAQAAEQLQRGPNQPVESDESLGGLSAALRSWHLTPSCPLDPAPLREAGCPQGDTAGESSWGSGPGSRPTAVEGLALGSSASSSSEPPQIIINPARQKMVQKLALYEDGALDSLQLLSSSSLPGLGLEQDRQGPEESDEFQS

[4] = molecular target: Mitogen-activated protein kinase kinase kinase 7 (TAK1) (Homo sapiens) (UniProt O43318); experiment: Inhibition of TAK1 at 10 uM
Sequence of Mitogen-activated protein kinase kinase kinase 7 (TAK1) (Homo sapiens) (O43318 whole entry, looked up): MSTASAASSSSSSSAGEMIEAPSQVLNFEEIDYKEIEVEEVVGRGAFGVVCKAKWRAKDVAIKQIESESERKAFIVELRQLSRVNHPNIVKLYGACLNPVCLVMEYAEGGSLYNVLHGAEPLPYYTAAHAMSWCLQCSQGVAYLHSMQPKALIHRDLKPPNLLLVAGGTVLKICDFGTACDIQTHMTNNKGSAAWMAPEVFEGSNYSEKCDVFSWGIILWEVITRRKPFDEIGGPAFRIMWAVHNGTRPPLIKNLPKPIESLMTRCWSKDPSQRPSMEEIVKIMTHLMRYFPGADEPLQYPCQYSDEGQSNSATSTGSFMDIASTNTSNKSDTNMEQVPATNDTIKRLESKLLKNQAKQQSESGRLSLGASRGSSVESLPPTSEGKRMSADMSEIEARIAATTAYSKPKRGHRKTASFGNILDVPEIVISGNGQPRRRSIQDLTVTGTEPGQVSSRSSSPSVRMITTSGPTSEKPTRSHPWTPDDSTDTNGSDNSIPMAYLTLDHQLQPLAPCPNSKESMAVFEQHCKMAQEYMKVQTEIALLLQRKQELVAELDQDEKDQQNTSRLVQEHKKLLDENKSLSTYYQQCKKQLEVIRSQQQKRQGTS

[5] = molecular target: T1, Inhibitor of nuclear factor kappa-B kinase subunit beta (Homo sapiens) (UniProt O14920); experiment: Inhibition of IKK-beta at 10 uM
T1 sequence (whole entry): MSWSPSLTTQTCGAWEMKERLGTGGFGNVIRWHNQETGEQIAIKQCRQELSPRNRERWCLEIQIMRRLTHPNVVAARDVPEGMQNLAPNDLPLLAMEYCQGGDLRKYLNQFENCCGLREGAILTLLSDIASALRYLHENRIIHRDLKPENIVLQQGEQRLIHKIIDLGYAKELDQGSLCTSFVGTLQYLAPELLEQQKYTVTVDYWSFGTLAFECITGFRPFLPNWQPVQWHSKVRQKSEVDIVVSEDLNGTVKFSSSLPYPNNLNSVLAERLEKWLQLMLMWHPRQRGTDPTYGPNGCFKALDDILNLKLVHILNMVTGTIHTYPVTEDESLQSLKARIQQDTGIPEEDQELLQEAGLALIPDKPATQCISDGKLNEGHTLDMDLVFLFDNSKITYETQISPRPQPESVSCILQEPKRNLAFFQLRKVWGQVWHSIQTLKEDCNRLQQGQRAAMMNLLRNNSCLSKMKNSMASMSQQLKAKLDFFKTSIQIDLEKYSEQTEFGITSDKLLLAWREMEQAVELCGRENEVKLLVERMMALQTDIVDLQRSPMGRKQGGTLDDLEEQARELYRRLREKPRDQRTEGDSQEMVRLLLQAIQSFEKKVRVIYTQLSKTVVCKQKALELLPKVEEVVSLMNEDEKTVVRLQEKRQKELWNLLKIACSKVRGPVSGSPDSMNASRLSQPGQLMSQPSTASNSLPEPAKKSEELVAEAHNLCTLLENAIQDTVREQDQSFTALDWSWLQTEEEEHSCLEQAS

Mus musculus [6] = experiment: Toxicity in SCID mouse xenografted with human NCI-H2009 cells assessed as necropsy at 1 mg/day, ip treated 6 days in a week for 5 weeks; type: organism-based; details: in vivo
Mus musculus [7] = experiment: Toxicity in SCID mouse xenografted with human NCI-H2009 cells at 1 mg/day, ip treated 6 days in a week for 5 weeks; type: organism-based; details: in vivo
Mus musculus [8] = experiment: Toxicity in SCID mouse xenografted with human NCI-H2009 cells assessed as increase in body weight at 1 mg/day, ip treated 6 days in a week for 5 weeks; type: organism-based; details: in vivo
[9] = molecular target: T2, Inhibitor of nuclear factor kappa-B kinase subunit alpha (Homo sapiens) (UniProt O15111); experiment: Inhibition of IKKalpha at 10 uM
T2 sequence (whole entry): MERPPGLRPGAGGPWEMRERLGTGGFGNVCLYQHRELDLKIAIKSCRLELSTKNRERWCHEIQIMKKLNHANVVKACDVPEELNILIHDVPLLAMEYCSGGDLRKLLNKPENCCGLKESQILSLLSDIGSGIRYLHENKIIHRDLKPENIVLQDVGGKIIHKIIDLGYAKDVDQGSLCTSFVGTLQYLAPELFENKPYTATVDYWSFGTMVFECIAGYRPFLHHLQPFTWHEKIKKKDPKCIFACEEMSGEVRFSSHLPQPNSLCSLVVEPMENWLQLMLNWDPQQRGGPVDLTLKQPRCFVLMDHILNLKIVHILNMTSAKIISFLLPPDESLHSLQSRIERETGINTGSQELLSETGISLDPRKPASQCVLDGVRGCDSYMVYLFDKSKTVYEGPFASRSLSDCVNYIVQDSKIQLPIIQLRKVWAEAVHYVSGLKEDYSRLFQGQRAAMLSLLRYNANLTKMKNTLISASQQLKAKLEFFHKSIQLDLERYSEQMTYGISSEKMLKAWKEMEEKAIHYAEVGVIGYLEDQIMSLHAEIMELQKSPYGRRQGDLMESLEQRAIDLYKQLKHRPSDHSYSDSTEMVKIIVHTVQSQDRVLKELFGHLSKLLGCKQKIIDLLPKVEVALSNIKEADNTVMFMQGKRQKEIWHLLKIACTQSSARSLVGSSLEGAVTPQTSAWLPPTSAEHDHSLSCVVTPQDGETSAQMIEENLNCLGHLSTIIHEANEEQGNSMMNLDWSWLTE

[10] = molecular target: Proto-oncogene tyrosine-protein kinase Src (Homo sapiens) (UniProt P12931); experiment: Inhibition of c-Src at 10 uM
Sequence of Proto-oncogene tyrosine-protein kinase Src (Homo sapiens) (P12931 2-536 limits assumed): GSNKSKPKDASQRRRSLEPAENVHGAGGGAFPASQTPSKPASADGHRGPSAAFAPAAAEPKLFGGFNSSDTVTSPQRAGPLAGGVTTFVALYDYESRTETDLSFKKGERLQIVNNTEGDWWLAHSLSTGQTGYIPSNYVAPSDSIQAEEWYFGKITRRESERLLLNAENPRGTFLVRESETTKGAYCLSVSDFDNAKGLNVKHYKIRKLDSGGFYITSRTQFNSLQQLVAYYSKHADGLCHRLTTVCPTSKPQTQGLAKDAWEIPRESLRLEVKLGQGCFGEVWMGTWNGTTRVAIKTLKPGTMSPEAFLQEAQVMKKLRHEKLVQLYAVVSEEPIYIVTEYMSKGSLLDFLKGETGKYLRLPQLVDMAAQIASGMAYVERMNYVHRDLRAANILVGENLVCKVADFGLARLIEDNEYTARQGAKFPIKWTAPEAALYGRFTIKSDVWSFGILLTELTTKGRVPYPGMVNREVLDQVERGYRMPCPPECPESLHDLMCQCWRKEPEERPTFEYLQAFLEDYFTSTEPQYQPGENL

[11] = molecular target: T3, Interleukin-1 receptor-associated kinase 4 (Homo sapiens) (UniProt Q9NWZ3); experiment: Inhibition of IRAK4 at 10 uM
T3 sequence (whole entry): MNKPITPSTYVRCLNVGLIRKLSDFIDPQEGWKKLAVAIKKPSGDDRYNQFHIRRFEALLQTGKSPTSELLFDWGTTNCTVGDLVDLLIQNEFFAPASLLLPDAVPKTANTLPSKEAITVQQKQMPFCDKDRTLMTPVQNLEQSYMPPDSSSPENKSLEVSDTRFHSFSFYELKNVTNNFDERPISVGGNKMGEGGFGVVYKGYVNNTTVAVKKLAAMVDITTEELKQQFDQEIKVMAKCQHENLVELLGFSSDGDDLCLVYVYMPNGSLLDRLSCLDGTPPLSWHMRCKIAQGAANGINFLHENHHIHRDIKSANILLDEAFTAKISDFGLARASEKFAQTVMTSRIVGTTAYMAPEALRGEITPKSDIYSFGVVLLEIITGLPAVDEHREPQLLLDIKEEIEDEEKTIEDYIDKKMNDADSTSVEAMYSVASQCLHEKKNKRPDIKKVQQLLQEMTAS

NCI-H2009 [12] = experiment: Anticancer activity against human NCI-H2009 cells xenografted in SCID mouse assessed as suppression of tumor growth at 1 mg/day, ip treated 6 days in a week for 5 weeks; type: functional

Row | Compound | IC50 [2] [µM] | GI50 (NCI-H2009 [1]) [µM] | GI50 (A549) [µM] | further results
1 | COc1ccc(/C=C/C(=O)c2cc(OC)c(OC)c(OC)c2)cc1OCCO | 9.1 | 3.3 | 4.7 | –
2 | O=C(/C=C/c1ccc(O)cc1)c1ccc(O)cc1O [ISOLIQUIRITIGENIN] | > 20 | – | – | –
3 | Cc1ccc(C(=O)/C=C/c2ccccc2)cc1 | > 20 | – | – | –
4 | O=C(/C=C/c1ccccc1)c1ccccc1 [CHALCONE] | > 20 | – | – | –
5 | COc1ccc(/C=C/C(=O)c2cc(OC)c(OC)c(OC)c2)cc1 | 19.3 | 8.4 | 12.4 | –
6 | O=C(/C=C/c1ccccc1)c1ccc(F)cc1 | > 20 | – | – | –
7 | O=C(/C=C/c1ccccc1)c1ccc(C(F)(F)F)cc1 | > 20 | – | – | –
8 | COc1cc(C(=O)/C=C/c2ccc(O)c(O)c2)cc(OC)c1OC | 1.9 | 1.1 | 2.6 | –
9 | O=C(/C=C/c1ccccc1)c1ccc(F)c(F)c1 | > 20 | – | – | –
10 | COc1ccc(CCC(=O)c2cc(OC)c(OC)c(OC)c2)cc1O | > 20 | 47 | 17.6 | –
11 | COc1ccc(/C=C/C(=O)c2cc(OC)c(OC)c(OC)c2)cc1OCCN | 5.9 | 3.6 | 5.6 | –
12 | COc1ccc(/C=C/C(=O)c2cc(OC)c(O)c(OC)c2)cc1O | 14.7 | 7.5 | 4 | –
13 | O=C(/C=C/c1ccccc1)c1ccccc1O [2'-HYDROXYCHALCONE] | > 20 | – | – | –
14 | O=C(/C=C/c1ccc(O)cc1)c1ccccc1 [4-HYDROXYCHALCONE] | > 20 | – | – | –
15 | O=C(/C=C/c1ccc(O)c(O)c1)c1ccc(O)cc1O [BUTEIN] | > 20 | – | – | –
16 | COc1ccc(/C=C/C(=O)c2ccc(OC)c(OC)c2)cc1O | 8 | 4.6 | 5.2 | –
17 | COc1ccc(/C=C/C(=O)c2cc(OC)c(OC)c(OC)c2)cc1O | 5.1 | 5.2 | 2.1 | inhibition [3]: inactive; inhibition [4]: inactive; inhibition [5]: 46%; Activity (Mus musculus [6]): Non-toxic; Activity (Mus musculus [7]): Non-toxic; Activity (Mus musculus [8]): Non-toxic; inhibition [9]: inactive; inhibition [10]: inactive; inhibition [11]: 41%; Activity (NCI-H2009 [12]): 57%

Second part, led by results:

Row | IC50 [2] [µM] | Compound | GI50 (NCI-H2009 [1]) [µM] | GI50 (A549) [µM] | further results
18 | 8.1 | COc1cc(OC)cc(C(=O)/C=C/c2ccc(OC)c(O)c2)c1 | 2.3 | 3.3 | –
19 | > 20 | COc1cc(O)c(C(=O)/C=C/c2ccc(F)cc2)c(OC)c1 | – | – | –
20 | > 20 | COc1cc(O)c(C(=O)/C=C/c2ccc(Cl)cc2)c(OC)c1 | – | – | –
21 | > 20 | COc1cc(O)c(C(=O)/C=C/c2ccccc2Br)c(OC)c1 | – | – | –
22 | > 20 | COc1cc(O)c(C(=O)/C=C/c2ccccc2C)c(OC)c1 | – | – | –
23 | 11.6 | COc1cc(C(=O)/C=C/c2ccc(O)cc2)cc(OC)c1OC | 4.5 | 8.5 | –
24 | > 20 | COc1cc(O)c(C(=O)/C=C/c2ccc(OC)c(O)c2)c(OC)c1 | – | – | –
25 | > 20 | COc1cc(O)c(C(=O)/C=C/c2ccc(OC)c(C)c2)c(OC)c1 | – | – | –
26 | 8.9 | COc1cc(C(=O)/C=C/c2ccccc2)cc(OC)c1OC | 6.6 | 8.8 | –
27 | 17 | COc1cc(O)c(C(=O)/C=C/c2cccc(C)c2)c(OC)c1 | – | – | –
28 | 2.3 | COc1cc(C(=O)/C=C/c2cccc(O)c2)cc(OC)c1OC | 4.2 | 1.7 | –
29 | > 20 | COc1cc(O)c(C(=O)/C=C/c2ccccc2)c(OC)c1 [FLAVOKAWAIN B] | – | – | –
30 | > 20 | CCCOc1ccc(/C=C/C(=O)c2c(O)cc(OC)cc2OC)cc1 | – | – | –
31 | > 20 | COc1cc(O)c(C(=O)/C=C/c2cc(OC)c(OC)c(OC)c2)c(OC)c1 | – | – | –
32 | > 20 | COc1ccc(/C=C/C(=O)c2c(O)cc(OC)cc2OC)cc1 [FLAVOKAWAIN A] | – | – | –
33 | 12.3 | COc1cc(O)c(C(=O)/C=C/c2cccc(Br)c2)c(OC)c1 | – | – | –
